According to US4013762A, “Growth promotion” (Richardson-Merrell Inc., priority 1976, dated 1977):
Where two headings read alike, the source gives them in different places.

How the values were obtained:
androgen receptor = target: T1, androgen receptor (Rattus norvegicus, UniProt P15207); assay: Androgen binding: competitive binding with 3H-testosterone labeled cytosol receptor sites, rat prostate cytosol
T1 construct: male rats were castrated and the prostate cytosol was prepared; from tissue; host or cells: prostate cytosol of castrated male rats, prepared 24 to 48 hours after surgery
T1 sequence (P15207 1-902): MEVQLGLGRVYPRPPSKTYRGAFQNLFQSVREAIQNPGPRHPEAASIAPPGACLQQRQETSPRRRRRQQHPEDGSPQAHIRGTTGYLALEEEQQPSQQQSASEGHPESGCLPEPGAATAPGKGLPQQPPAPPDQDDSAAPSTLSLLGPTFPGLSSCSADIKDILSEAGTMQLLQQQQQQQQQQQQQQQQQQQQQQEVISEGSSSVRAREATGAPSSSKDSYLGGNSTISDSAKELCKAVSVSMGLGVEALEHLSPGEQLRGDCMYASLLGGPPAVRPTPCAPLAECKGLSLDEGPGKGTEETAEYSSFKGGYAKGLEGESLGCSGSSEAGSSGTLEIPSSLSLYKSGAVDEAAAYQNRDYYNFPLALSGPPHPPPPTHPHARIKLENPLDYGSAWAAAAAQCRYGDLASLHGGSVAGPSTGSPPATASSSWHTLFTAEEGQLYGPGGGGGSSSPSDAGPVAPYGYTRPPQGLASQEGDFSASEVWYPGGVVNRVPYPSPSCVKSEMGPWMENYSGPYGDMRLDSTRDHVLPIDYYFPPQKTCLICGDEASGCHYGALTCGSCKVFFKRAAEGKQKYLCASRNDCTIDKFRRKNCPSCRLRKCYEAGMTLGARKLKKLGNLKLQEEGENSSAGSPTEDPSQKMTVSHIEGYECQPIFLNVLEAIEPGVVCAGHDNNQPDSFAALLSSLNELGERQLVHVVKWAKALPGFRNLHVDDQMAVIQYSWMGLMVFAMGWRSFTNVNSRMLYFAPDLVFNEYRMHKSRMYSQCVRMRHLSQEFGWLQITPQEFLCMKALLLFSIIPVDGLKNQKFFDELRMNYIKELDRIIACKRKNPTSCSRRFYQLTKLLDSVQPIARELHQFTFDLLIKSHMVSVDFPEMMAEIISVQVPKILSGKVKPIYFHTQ
From the text: This binding is the first step necessary for hormonal action.

[1] = system: ten day old leghorn chicks; assay: Chick weight gain, subcutaneous treatment for six days; format: in vivo; conditions: for Weight Gain (g ± S.E.M.): gain during one week, control 52.7 ± 1.6, * significantly different from controls, p <- 0.05
poultry and ruminants [2] = assay: Growth promotion in animals; format: in vivo; conditions: applicant's findings
muscle fiber [3] = assay: Masculinizing effect on the muscle fiber; format: in vivo; conditions: applicant's findings
[4] = reported in U.S. Pat. Nos. 3,235,573 and 3,449,381; cited from earlier work
muscle fiber [5] = conditions: background, known; cited from earlier work
poultry and ruminants [6] = conditions: background, known; cited from earlier work

For `C[C@]12CC[C@H]3[C@@H](CCC4=CC(=O)CC[C@@]43C=O)[C@@H]1CCC2=O` [3,17-Dioxoandrost-4-en-19-al, 3,17-dioxoandrost-4-en-19-al], the “androgen receptor binding” value (androgen receptor; in vitro, androgen target tissue) was “lack of androgen binding affinity”, the “% Binding (androgen binding, relative)” value (androgen receptor; relative to 5α-dihydrotestosterone equated to 100, 4 × 10^-6 to 4 × 10^-10 molar, castrated male rat prostate cytosol) was 0.07% and the “Weight Gain (g ± S.E.M.)” value ([1]; 1 mg/kg/day subcutaneously for six days) was 58.8 ± 1.4 g. For the same molecule, the “Weight Gain (g ± S.E.M.)” value ([1]; 10 mg/kg/day subcutaneously for six days) was 63.0 ± 1.1 g, the “Weight Gain (g ± S.E.M.)” value ([1]; 30 mg/kg/day subcutaneously for six days) was 74.0 ± 2.6 g and the “growth rate as measured by weight gain” value ([1]; 1.0, 10 and 30 mg/kg/day s.c. six days, compared to untreated control chicks) was “significant increase in growth rate”.

For `C[C@]12CC[C@H]3[C@@H](CCC4=CC(=O)CC[C@@]43C=O)[C@@H]1CC[C@@H]2O` [3-oxo-17β-hydroxyandrost-4-en-19-al], the “growth promotion” value (poultry and ruminants [2]) is listed as “effective in growth promotion in animals”, the “masculinizing effect on the muscle fiber” value (muscle fiber [3]) is listed as “without any masculinizing effect on the muscle fiber” and the “anabolic-androgenic activity” value [4] is listed as “anabolic-androgenic activity”.

For `CCC(=O)O[C@H]1CC[C@H]2[C@@H]3CCC4=CC(=O)CC[C@]4(C)[C@H]3CC[C@]12C` [testosterone propionate], the “masculinization of the muscle fiber” value (muscle fiber [5]) is given as “masculinization of the muscle fiber” and the “growth promotion” value (poultry and ruminants [6]) is given as “effective in promoting growth in animals”.

For `CSCCC(O)C(=O)O` (stereo not drawn) [α-hydroxy-γ-methylmercaptobutyric acid], the “growth promotion” value (poultry and ruminants [6]) is given as “promote growth by improving feed efficiency”.
